Converted amounts (≈) assume the structure as drawn.
Legend:
Type in all cases: cell-based
Cryptococcus neoformans = assay: In vitro MIC, NCCLS M27A, Cryptococcus neoformans; set-up: MIC, C. neoformans I: unit not given beside the values; MIC, C. neoformans M 106: unit not given here; settings: for MIC, C. neoformans I: C. neoformans strain I; for MIC, C. neoformans M 106: C. neoformans strain M 106
A. fumigatus s 1008 = assay: In vitro MIC, NCCLS M38P broth method (RPMI 1640/MOPS pH7), Aspergillus fumigatus; settings: A. fumigatus strain 1008
Candida = assay: In vitro MIC, NCCLS M27A, Candida species; set-up: MIC, Candida albicans 1.549 / MIC, Candida albicans Y-01-19 / MIC, C. krusei 766-1 / MIC, C. krusei Q. C / MIC, Candida tropicalis ATCC / MIC, C. glabrata 90030: unit not given beside the values; MIC, Candida albicans A 26 / MIC, C. parapsilosis Q. C.: unit not given here; settings: for MIC, C. glabrata 90030: C. glabrata strain 90030; for MIC, C. krusei 766-1: C. krusei strain 766-1; for MIC, C. krusei Q. C: C. krusei strain Q. C; for MIC, C. parapsilosis Q. C.: C. parapsilosis strain Q. C.; for MIC, Candida albicans 1.549: Candida albicans strain 1.549; for MIC, Candida albicans A 26: Candida albicans strain A 26; for MIC, Candida albicans Y-01-19: Candida albicans strain Y-01-19
Histoplasma capsulatum = system: Histoplasma capsulatum

Structure (SMILES)	MIC, C. neoformans I (Cryptococcus neoformans)	MIC, C. neoformans M 106 (Cryptococcus neoformans)	MIC, A. fumigatus 1008 (A. fumigatus s 1008)	MIC, C. glabrata 90030 (Candida)	MIC, C. krusei 766-1 (Candida)	MIC, C. krusei Q. C (Candida)	MIC, C. parapsilosis Q. C. (Candida)	MIC, Candida albicans 1.549 (Candida)	MIC, Candida albicans A 26 (Candida)	MIC, Candida albicans Y-01-19 (Candida)	MIC, Candida tropicalis ATCC (Candida)	MIC, H. capsulatum (Histoplasma capsulatum)
COc1ccc(N2CCN(c3ccc(-n4cnn([C@H](C)[C@@](O)(Cn5cncn5)c5ccc(F)cc5F)c4=O)cc3)CC2)cc1 [Compound 14, 2-{[1R2S/1S2R]-2-(2,4-Difluorophenyl)-2-hydroxy-1-methyl-3-(1H-1,2,4-triazol-1-yl)propyl}-4-{4-[4-(4-methoxyphenyl)-1-piperazinyl]phenyl}-3-(2H,4H)-1,2,4-triazolone]	0.50	<0.03	>16	2.00	>16	16.0	0.06	2.00	<0.03	2.00	<0.03	0.12 mg/L (≈ 0.199 µM)
C[C@@H](n1ncn(-c2ccc(N3CCN(c4ccc([N+](=O)[O-])cc4[N+](=O)[O-])CC3)cc2)c1=O)[C@@](O)(Cn1cncn1)c1ccc(F)cc1F [Compound 4, 2-{[1R2S/1S2R]-2-(2,4-Difluorophenyl)-2-hydroxy-1-methyl-3-(1H-1,2,4-triazol-1-yl)propyl}-4-{4-[4-(2,4-dinitrophenyl)-1-piperazinyl]phenyl}-3-(2H,4H)-1,2,4-triazolone]	0.25	1.00	>16	2.00	>16	>16	0.25	4.00	<0.03	>16	<0.03	0.5 mg/L (≈ 0.755 µM)
C[C@@H](n1ncn(-c2ccc(N3CCN(c4ccc(Cl)cc4)CC3)cc2)c1=O)[C@](O)(Cn1cncn1)c1ccc(F)cc1F [Compound 1, 2-{[1R2R/1S2S]-2-(2,4-Difluorophenyl)-2-hydroxy-1-methyl-3-(1H-1,2,4-triazol-1-yl)propyl}-4-{4-[4-(4-chlorophenyl)-1-piperazinyl]phenyl}-3-(2H,4H)-1,2,4-triazolone]	<0.03	<0.03	0.12	0.25	0.25	0.12	<0.03	0.12	<0.03	0.12	<0.03	0.06 mg/L (≈ 0.0988 µM)
O=c1n(-c2ccc(N3CCN(c4ccccc4)CC3)cc2)cnn1CC(O)(Cn1cncn1)c1ccc(F)cc1F (stereo not drawn) [Compound 45, 2-[2-(2,4-Difluorophenyl)-2-hydroxy-3-(1H-1,2,4-triazol-1-yl)propyl]-4-{4-[1-phenyl-1-piperazinyl]phenyl}-3-(2H,4H)-1,2,4-triazolone]	<0.02	0.10	>12.5	0.10	0.80	0.10	<0.02	0.05	<0.02	0.05	3.12	3.12 mg/L (≈ 5.59 µM)

From patent US6670363B1, “Azole compounds as therapeutic agents for fungal infections” (Ranbaxy Laboratories Limited, priority 2000, dated 2003)
